For orientation: pKi means the Ki on a negative log10 scale, so that one unit is a factor of ten.

pKi: −log10 of the molar value.

The target of one experiment is Carbonic anhydrase 1 (Homo sapiens, UniProt P00915).
In another experiment the target is T1, Carbonic anhydrase 4 (Bos taurus, UniProt Q95323).
T1 sequence (Q95323 whole entry): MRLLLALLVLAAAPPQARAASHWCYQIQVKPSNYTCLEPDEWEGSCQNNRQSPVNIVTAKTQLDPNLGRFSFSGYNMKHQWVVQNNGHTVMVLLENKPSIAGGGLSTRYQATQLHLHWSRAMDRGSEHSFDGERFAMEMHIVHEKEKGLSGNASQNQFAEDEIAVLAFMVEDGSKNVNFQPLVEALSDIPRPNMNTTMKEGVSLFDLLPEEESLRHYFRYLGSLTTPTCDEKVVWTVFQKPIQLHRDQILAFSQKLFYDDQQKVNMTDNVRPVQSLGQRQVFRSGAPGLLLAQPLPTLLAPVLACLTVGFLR

The target in the next experiment is Carbonic anhydrase 2 (Homo sapiens, UniProt P00918).

Sequence of Carbonic anhydrase 1 (P00915 whole entry): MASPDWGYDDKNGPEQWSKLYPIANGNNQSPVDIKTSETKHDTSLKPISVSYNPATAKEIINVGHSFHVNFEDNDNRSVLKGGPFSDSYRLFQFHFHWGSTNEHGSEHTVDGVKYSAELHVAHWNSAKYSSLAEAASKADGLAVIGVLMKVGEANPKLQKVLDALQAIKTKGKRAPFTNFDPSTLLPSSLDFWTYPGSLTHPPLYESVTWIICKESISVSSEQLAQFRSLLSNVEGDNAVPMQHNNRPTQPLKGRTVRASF
Description for Carbonic anhydrase 1: Inhibitory activity against human recombinant carbonic anhydrase I (CA1)
Description for Carbonic anhydrase 2: Inhibitory activity against human recombinant carbonic anhydrase II (CA2)
Description for Carbonic anhydrase 4: Inhibitory activity against bovine carbonic anhydrase IV (CA4), obtained from bovine lung microsomes

In the case of `C[C@H](CCC(=O)Nc1ccc(S(N)(=O)=O)cc1)[C@H]1CC[C@H]2[C@@H]3[C@@H](O)C[C@@H]4C[C@H](O)CC[C@]4(C)[C@H]3CC[C@]12C`, the pKi on Carbonic anhydrase 1 was 5.40; on Carbonic anhydrase 4, 6.79; on Carbonic anhydrase 2 it was 7.15.
In the same order, the values of `C[C@H](CCC(=O)Nc1ccc(S(N)(=O)=O)cc1Br)[C@H]1CC[C@H]2[C@@H]3[C@H](O)C[C@@H]4C[C@H](O)CC[C@]4(C)[C@H]3CC[C@]12C` are 6.21, 7.28 and 7.47.
In the same order, the values of `C[C@H](CCC(=O)Nc1ccc2nc(S(N)(=O)=O)sc2c1)[C@H]1CC[C@H]2[C@@H]3CC[C@@H]4C[C@H](O)CC[C@]4(C)[C@H]3C[C@H](O)[C@]12C` are 7.25, 7.92 and 8.19.
For `C[C@H](CCC(=O)Oc1ccc2nc(S(N)(=O)=O)sc2c1)[C@H]1CC[C@H]2[C@@H]3CC[C@@H]4C[C@H](O)CC[C@]4(C)[C@H]3C[C@H](O)[C@]12C`, in that order: 7.41, 8.05 and 8.32.
For the compound `C[C@H](CCC(=O)OCCc1ccc(S(N)(=O)=O)cc1)[C@H]1CC[C@H]2[C@@H]3CC[C@@H]4C[C@H](O)CC[C@]4(C)[C@H]3C[C@H](O)[C@]12C`, the values for the pKi on Carbonic anhydrase 1, on Carbonic anhydrase 4 and on Carbonic anhydrase 2 were 6.05, 6.52 and 7.11, respectively.
For `C[C@H](CCC(=O)Nc1cc(Cl)c(S(N)(=O)=O)cc1S(N)(=O)=O)[C@H]1CC[C@H]2[C@@H]3CC[C@@H]4C[C@H](O)CC[C@]4(C)[C@H]3CC[C@]12C`, in that order: 6.70, 7.09 and 7.27.
With `C[C@H](CCC(=O)Nc1ccc(S(N)(=O)=O)cc1F)[C@H]1CC[C@H]2[C@@H]3[C@H](O)C[C@@H]4C[C@H](O)CC[C@]4(C)[C@H]3CC[C@]12C`, the pKi was 5.98 at Carbonic anhydrase 1, 6.89 at Carbonic anhydrase 4 and 7.30 at Carbonic anhydrase 2.
In the same order, the values of `C[C@H](CCC(=O)/N=c1\sc(S(N)(=O)=O)nn1C)[C@H]1CC[C@H]2[C@@H]3[C@H](O)C[C@@H]4C[C@H](O)CC[C@]4(C)[C@H]3CC[C@]12C` are 6.29, 7.00 and 7.89.
In the same order, the values of `C[C@H](CCC(=O)Nc1ccc(S(N)(=O)=O)cc1Br)[C@H]1CC[C@H]2[C@@H]3C(=O)C[C@@H]4CC(=O)CC[C@]4(C)[C@H]3CC(=O)[C@]12C` are 7.18, 7.55 and 8.05.
Take `C[C@H](CCC(=O)Nc1ccc2nc(S(N)(=O)=O)sc2c1)[C@H]1CC[C@H]2[C@@H]3CC[C@@H]4C[C@H](O)CC[C@]4(C)[C@H]3CC[C@]12C`: the values for the pKi at Carbonic anhydrase 1, on Carbonic anhydrase 4 and at Carbonic anhydrase 2 were 7.32, 8.05 and 8.55, respectively.
For `C[C@H](CCC(=O)Nc1ccc2nc(S(N)(=O)=O)sc2c1)[C@H]1CC[C@H]2[C@@H]3C(=O)C[C@@H]4CC(=O)CC[C@]4(C)[C@H]3CC(=O)[C@]12C`, in that order: 7.41, 8.15 and 9.10.
In the case of `C[C@H](CCC(=O)Nc1ccc(S(N)(=O)=O)cc1I)[C@H]1CC[C@H]2[C@@H]3[C@H](O)C[C@@H]4C[C@H](O)CC[C@]4(C)[C@H]3C[C@H](O)[C@]12C`, the values for the pKi on Carbonic anhydrase 1, on Carbonic anhydrase 4 and at Carbonic anhydrase 2 were 6.29, 6.98 and 7.28, respectively.
In the same order, the values of `C[C@H](CCC(=O)Nc1c(S(N)(=O)=O)cc(S(N)(=O)=O)c(Cl)c1Cl)[C@H]1CC[C@H]2[C@@H]3[C@H](O)C[C@@H]4C[C@H](O)CC[C@]4(C)[C@H]3C[C@H](O)[C@]12C` are 6.40, 7.01 and 7.68.
Take `C[C@H](CCC(=O)Nc1cc(Cl)c(S(N)(=O)=O)cc1S(N)(=O)=O)[C@H]1CC[C@H]2[C@@H]3[C@H](O)C[C@@H]4C[C@H](O)CC[C@]4(C)[C@H]3CC[C@]12C`: the pKi is 6.52 on Carbonic anhydrase 1, 6.84 at Carbonic anhydrase 4 and 7.21 on Carbonic anhydrase 2.
For `C[C@H](CCC(=O)Nc1ccc(S(N)(=O)=O)cc1I)[C@H]1CC[C@H]2[C@@H]3[C@@H](O)C[C@@H]4C[C@H](O)CC[C@]4(C)[C@H]3CC[C@]12C`, in that order: 7.17, 7.70 and 7.89.
In the same order, the values of `C[C@H](CCC(=O)NNc1ccc(S(N)(=O)=O)cc1)[C@H]1CC[C@H]2[C@@H]3CC[C@@H]4C[C@H](O)CC[C@]4(C)[C@H]3C[C@H](O)[C@]12C` are 4.67, 6.04 and 6.51.
For `C[C@H](CCC(=O)Nc1ccccc1S(N)(=O)=O)[C@H]1CC[C@H]2[C@@H]3C(=O)C[C@@H]4CC(=O)CC[C@]4(C)[C@H]3CC(=O)[C@]12C`, in that order: 5.09, 6.30 and 6.77.
With `C[C@H](CCC(=O)Nc1cccc(S(N)(=O)=O)c1)[C@H]1CC[C@H]2[C@@H]3CC[C@@H]4C[C@H](O)CC[C@]4(C)[C@H]3CC[C@]12C`, the pKi on Carbonic anhydrase 1 is 5.02; on Carbonic anhydrase 4, 6.13; at Carbonic anhydrase 2, 6.68.
In the same order, the values of `C[C@H](CCC(=O)NCCC(=O)Nc1nnc(S(N)(=O)=O)s1)[C@H]1CC[C@H]2[C@@H]3[C@@H](O)C[C@@H]4C[C@H](O)CC[C@]4(C)[C@H]3CC[C@]12C` are 7.01, 7.96 and 8.89.
For `C[C@H](CCC(=O)NNc1ccc(S(N)(=O)=O)cc1)[C@H]1CC[C@H]2[C@@H]3C(=O)C[C@@H]4CC(=O)CC[C@]4(C)[C@H]3CC(=O)[C@]12C`, in that order: 4.89, 6.26 and 6.59.
For `C[C@H](CCC(=O)Nc1cc(Cl)c(S(N)(=O)=O)cc1S(N)(=O)=O)[C@H]1CC[C@H]2[C@@H]3C(=O)C[C@@H]4CC(=O)CC[C@]4(C)[C@H]3CC(=O)[C@]12C`, in that order: 7.11, 7.30 and 7.96.
As to `C[C@H](CCC(=O)Nc1cccc(S(N)(=O)=O)c1)[C@H]1CC[C@H]2[C@@H]3CC[C@@H]4C[C@H](O)CC[C@]4(C)[C@H]3C[C@H](O)[C@]12C`, the negative-log Ki (pKi) is 4.90 at Carbonic anhydrase 1, 6.01 on Carbonic anhydrase 4 and 6.64 on Carbonic anhydrase 2.
In the same order, the values of `C[C@H](CCC(=O)Nc1ccccc1S(N)(=O)=O)[C@H]1CC[C@H]2[C@@H]3[C@H](O)C[C@@H]4C[C@H](O)CC[C@]4(C)[C@H]3CC[C@]12C` are 4.66, 6.05 and 6.61.
In the same order, the values of `C[C@H](CCC(=O)Nc1ccc(S(N)(=O)=O)cc1)[C@H]1CC[C@H]2[C@@H]3CC[C@@H]4C[C@H](O)CC[C@]4(C)[C@H]3CC[C@]12C` are 5.20, 6.55 and 6.97.
For `C[C@H](CCC(=O)/N=c1/sc(S(N)(=O)=O)nn1C)[C@H]1CC[C@H]2[C@@H]3[C@H](O)C[C@@H]4C[C@H](O)CC[C@]4(C)[C@H]3C[C@H](O)[C@]12C`, in that order: 6.15, 6.94 and 7.92.

(Values after ChEMBL document CHEMBL1135136, “Carbonic anhydrase inhibitors. Preparation of potent sulfonamides inhibitors incorporating bile acid tails” (Bioorg Med Chem Lett, 2002).)
